Consider three molecules from PubChem BioAssay AID742 (SRMLSC, 2007).

Activity calls are given as the source filed them. The rule behind the calls is not given here.

The nature of assay [1]: inhibitors of Her2 kinase expression, dose response, cell-based, AlphaScreen, CellTiter-Glo viability (AID 742). The following applies: human cells, Her2 expression AlphaScreen; CTG viability; at 9.62 µM (top of the series). On the technique in general: In Alpha technology, singlet oxygen from a donor bead excites a nearby acceptor bead.
Assay [2] concerns human cells, Her2 expression AlphaScreen; CTG viability. The assay is described as above. The note with it: viability, CellTiter-Glo.

Regarding `COc1ccc(CSc2nnnn2Cc2ccccc2)cc1OC`, in assay [1], the Her2 inhibition is -31.4% (inactive). Moreover, the 50% effective concentration (EC50) in assay [2] is greater than 9.62 µM.

As for `CCCOc1ccc(C(=O)CCN2CCCCC2)cc1`, the Her2 inhibition in assay [1] is -16.8% (inactive). Further, in assay [2], the EC50 is greater than 9.62 µM.

`C[C@@]1(CO)[C@H](O)CC[C@@]2(C)[C@H]1CC[C@H]1C[C@@H]3C[C@@]12CC[C@]3(O)CO`: in assay [1], the Her2 inhibition was 1.16% (inactive). The molecule also displayed an EC50 in assay [2] greater than 9.62 µM.

Usually EC50 stands for the concentration that produces a half-maximal response. Low readings indicate greater potency, high ones weaker potency.
